# Laboratory results taken from PMC10838953.
# Key:
# TRKA = TRKA (Homo sapiens, UniProt P04629); assay: biochemical; conditions: read-out: %Ctrl @ 2000nM
# CLK4 = CLK4 (Homo sapiens, UniProt Q9HAZ1); assay: biochemical; conditions: read-out: %Ctrl @ 2000nM
# MEK3 = MEK3 (Homo sapiens, UniProt P46734); assay: biochemical; conditions: read-out: %Ctrl @ 2000nM
# JNK2 = JNK2 (Homo sapiens, UniProt P45984); assay: biochemical; conditions: read-out: %Ctrl @ 2000nM
# TXK = TXK (Homo sapiens, UniProt P42681); assay: biochemical; conditions: read-out: %Ctrl @ 2000nM
# FRK = FRK (Homo sapiens, UniProt P42685); assay: biochemical; conditions: read-out: %Ctrl @ 2000nM
# Chain of FRK (P42685 whole entry): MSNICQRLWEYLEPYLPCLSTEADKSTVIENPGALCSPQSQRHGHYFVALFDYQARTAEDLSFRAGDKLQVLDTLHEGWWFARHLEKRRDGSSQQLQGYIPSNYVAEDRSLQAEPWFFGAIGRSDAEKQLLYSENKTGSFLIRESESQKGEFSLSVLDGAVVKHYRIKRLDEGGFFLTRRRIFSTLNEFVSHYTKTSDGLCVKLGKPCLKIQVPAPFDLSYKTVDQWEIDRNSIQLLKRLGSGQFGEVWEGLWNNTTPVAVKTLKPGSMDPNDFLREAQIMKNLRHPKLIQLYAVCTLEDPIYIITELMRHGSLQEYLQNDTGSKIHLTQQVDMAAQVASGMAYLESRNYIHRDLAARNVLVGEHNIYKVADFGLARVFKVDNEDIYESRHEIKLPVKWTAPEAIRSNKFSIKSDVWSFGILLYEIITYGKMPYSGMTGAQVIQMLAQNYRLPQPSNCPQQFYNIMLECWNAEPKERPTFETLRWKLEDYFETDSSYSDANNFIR
# RET(M918T) = RET(M918T) (Homo sapiens, UniProt P07949, M918T); assay: biochemical; conditions: read-out: %Ctrl @ 2000nM
# p38 MAPK (T180/Y182) = conditions: HEK293 cells; 48 h
# [1] = target: TYK2(JH2domain-pseudokinase) (Homo sapiens, UniProt P29597); assay: biochemical; conditions: read-out: %Ctrl @ 2000nM
# Chain of TYK2(JH2domain-pseudokinase) (P29597 589-875 limits assumed): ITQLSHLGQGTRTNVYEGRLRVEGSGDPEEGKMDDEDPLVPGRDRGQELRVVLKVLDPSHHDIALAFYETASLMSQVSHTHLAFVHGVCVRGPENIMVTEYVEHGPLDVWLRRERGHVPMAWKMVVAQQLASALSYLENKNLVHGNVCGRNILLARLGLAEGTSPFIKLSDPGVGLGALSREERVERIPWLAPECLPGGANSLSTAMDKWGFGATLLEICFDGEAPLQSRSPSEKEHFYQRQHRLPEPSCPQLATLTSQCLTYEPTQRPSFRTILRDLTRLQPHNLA
# CLK2 = CLK2 (Homo sapiens, UniProt P49760); assay: biochemical; conditions: read-out: %Ctrl @ 2000nM
# MLK3 = MLK3 (Homo sapiens, UniProt Q16584); assay: biochemical; conditions: read-out: %Ctrl @ 2000nM
# Chain of MLK3 (Q16584 whole entry): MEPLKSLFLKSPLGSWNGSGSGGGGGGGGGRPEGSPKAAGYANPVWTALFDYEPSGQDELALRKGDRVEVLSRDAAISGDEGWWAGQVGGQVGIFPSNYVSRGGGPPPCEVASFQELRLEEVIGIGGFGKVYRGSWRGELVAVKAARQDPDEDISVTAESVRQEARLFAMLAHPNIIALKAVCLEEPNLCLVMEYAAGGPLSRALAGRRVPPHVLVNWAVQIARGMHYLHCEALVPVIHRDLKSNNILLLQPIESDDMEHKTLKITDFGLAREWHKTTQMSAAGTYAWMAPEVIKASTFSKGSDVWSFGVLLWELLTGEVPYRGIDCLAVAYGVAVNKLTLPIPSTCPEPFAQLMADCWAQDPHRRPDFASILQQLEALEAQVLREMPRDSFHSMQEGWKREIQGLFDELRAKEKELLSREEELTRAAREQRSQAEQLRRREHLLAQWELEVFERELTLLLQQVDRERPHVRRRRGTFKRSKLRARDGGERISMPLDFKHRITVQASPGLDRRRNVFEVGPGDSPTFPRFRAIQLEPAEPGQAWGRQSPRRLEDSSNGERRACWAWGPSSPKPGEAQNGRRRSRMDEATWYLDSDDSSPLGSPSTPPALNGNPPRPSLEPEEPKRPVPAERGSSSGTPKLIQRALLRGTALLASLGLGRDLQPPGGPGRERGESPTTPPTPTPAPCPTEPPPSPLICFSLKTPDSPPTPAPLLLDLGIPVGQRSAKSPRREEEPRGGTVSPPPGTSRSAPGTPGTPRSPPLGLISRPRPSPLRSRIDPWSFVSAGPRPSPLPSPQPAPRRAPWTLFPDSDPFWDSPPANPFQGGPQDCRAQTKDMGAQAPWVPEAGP
# AURKB = AURKB (Homo sapiens, UniProt Q96GD4); assay: biochemical; conditions: read-out: %Ctrl @ 2000nM
# FGFR1 = FGFR1 (Homo sapiens, UniProt P11362); assay: biochemical; conditions: read-out: %Ctrl @ 2000nM
# Chain of FGFR1 (P11362 22-822): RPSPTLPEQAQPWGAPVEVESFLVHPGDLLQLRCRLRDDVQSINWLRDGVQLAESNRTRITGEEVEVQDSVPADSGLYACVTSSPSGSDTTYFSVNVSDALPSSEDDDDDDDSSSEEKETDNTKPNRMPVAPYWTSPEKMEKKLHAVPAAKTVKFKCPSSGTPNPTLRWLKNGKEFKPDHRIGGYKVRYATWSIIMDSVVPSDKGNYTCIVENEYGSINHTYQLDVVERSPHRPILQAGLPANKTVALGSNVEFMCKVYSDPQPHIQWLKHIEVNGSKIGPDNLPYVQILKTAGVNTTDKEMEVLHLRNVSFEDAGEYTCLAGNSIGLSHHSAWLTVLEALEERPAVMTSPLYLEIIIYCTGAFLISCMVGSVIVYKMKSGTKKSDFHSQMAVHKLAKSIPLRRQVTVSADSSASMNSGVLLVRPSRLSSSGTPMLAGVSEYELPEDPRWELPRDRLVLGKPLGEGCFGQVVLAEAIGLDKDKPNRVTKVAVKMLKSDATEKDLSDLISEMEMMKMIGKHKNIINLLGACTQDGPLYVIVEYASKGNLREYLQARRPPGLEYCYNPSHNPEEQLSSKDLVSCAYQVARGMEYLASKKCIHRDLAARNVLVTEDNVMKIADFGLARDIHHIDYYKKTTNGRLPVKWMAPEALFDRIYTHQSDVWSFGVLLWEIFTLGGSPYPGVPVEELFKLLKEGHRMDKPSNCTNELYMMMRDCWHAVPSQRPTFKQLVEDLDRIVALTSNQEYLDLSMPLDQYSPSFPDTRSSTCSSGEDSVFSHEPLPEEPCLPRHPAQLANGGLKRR
# EPHA5 = EPHA5 (Homo sapiens, UniProt P54756); assay: biochemical; conditions: read-out: %Ctrl @ 2000nM
# RIPK2 = RIPK2 (Homo sapiens, UniProt O43353); assay: biochemical; conditions: read-out: %Ctrl @ 2000nM
# AKT (S129) = conditions: 786-O cells; 48 h
# EPHA7 = EPHA7 (Homo sapiens, UniProt Q15375); assay: biochemical; conditions: read-out: %Ctrl @ 2000nM
# AAK1 = AAK1 (Homo sapiens, UniProt Q2M2I8); assay: biochemical; conditions: read-out: %Ctrl @ 2000nM
# MYO3B = MYO3B (Homo sapiens, UniProt Q8WXR4); assay: biochemical; conditions: read-out: %Ctrl @ 2000nM
# Chain of MYO3B (Q8WXR4 whole entry): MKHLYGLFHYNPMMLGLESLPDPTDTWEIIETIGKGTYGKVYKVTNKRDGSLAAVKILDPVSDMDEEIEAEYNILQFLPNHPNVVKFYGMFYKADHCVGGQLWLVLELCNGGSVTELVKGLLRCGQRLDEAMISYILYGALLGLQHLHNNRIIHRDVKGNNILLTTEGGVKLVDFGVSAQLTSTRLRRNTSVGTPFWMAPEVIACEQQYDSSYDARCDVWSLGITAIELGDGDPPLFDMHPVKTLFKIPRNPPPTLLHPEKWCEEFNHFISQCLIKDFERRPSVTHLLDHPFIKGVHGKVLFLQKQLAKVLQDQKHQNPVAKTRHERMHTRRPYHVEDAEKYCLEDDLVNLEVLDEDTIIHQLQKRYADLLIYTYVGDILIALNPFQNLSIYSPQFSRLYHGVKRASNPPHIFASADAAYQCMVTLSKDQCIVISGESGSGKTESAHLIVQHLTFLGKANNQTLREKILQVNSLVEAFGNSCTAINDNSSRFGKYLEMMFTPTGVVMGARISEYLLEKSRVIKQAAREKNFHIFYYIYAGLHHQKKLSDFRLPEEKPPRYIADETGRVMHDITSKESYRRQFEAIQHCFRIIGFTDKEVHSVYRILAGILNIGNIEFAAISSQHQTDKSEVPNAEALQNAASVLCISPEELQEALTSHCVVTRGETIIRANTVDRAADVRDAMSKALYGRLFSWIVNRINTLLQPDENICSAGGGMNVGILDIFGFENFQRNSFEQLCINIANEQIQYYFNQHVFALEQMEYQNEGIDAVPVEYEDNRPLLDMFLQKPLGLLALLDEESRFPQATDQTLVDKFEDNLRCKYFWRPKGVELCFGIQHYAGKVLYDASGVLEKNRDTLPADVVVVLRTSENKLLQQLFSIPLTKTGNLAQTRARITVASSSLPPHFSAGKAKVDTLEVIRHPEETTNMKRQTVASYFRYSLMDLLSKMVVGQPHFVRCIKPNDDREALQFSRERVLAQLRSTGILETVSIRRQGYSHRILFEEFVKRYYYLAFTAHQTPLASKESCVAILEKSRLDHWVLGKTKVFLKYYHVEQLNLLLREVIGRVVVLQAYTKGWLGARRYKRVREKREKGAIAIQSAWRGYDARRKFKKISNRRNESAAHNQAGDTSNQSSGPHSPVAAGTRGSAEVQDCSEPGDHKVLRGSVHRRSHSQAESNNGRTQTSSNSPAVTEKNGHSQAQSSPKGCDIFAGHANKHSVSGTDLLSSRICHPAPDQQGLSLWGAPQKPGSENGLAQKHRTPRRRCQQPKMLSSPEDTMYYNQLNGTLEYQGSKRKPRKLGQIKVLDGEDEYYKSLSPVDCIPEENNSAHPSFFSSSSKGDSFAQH
# [2] = target: ABL1(E255K)-phosphorylated (Homo sapiens, UniProt P00519, E255K); assay: biochemical; conditions: read-out: %Ctrl @ 2000nM
# PIK3CD = PIK3CD (Homo sapiens, UniProt O00329); assay: biochemical; conditions: read-out: %Ctrl @ 2000nM
# MEK4 = MEK4 (Homo sapiens, UniProt P45985); assay: biochemical; conditions: read-out: %Ctrl @ 2000nM
# SNRK = SNRK (Homo sapiens, UniProt Q9NRH2); assay: biochemical; conditions: read-out: %Ctrl @ 2000nM
# Chain of SNRK (Q9NRH2 whole entry): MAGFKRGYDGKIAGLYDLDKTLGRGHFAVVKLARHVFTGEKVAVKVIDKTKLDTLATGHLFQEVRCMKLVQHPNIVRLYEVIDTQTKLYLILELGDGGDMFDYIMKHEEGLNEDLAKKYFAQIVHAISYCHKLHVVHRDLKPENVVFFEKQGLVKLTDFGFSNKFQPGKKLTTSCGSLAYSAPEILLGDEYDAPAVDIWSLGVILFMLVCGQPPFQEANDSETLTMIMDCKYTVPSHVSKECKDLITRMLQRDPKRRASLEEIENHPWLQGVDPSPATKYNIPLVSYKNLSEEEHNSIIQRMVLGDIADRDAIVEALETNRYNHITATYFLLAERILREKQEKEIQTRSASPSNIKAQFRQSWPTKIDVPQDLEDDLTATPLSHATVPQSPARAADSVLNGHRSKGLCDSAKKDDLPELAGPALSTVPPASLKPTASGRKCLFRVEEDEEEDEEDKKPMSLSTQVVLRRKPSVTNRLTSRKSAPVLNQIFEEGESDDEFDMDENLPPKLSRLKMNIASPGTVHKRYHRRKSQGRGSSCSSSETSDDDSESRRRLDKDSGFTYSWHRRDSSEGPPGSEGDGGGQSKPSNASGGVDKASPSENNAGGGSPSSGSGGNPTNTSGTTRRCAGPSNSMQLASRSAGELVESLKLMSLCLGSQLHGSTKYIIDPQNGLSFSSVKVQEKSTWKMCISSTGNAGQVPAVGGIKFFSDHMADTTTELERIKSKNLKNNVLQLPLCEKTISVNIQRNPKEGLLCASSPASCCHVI
# PIK3CA(M1043I) = PIK3CA(M1043I) (Homo sapiens, UniProt P42336, M1043I); assay: biochemical; conditions: read-out: %Ctrl @ 2000nM
# ACVR1B = ACVR1B (Homo sapiens, UniProt P36896); assay: biochemical; conditions: read-out: %Ctrl @ 2000nM
# FGFR2 = FGFR2 (Homo sapiens, UniProt P21802); assay: biochemical; conditions: read-out: %Ctrl @ 2000nM
# PIK4CB = PIK4CB (Homo sapiens, UniProt Q9UBF8); assay: biochemical; conditions: read-out: %Ctrl @ 2000nM
# MTOR = MTOR (Homo sapiens, UniProt P42345); assay: biochemical; conditions: read-out: %Ctrl @ 2000nM
# MKNK2 = MKNK2 (Homo sapiens, UniProt Q9HBH9); assay: biochemical; conditions: read-out: %Ctrl @ 2000nM
# MST1 = MST1 (Homo sapiens, UniProt Q13043); assay: biochemical; conditions: read-out: %Ctrl @ 2000nM
# STK16 = STK16 (Homo sapiens, UniProt O75716); assay: biochemical; conditions: read-out: %Ctrl @ 2000nM
# ERN1 = ERN1 (Homo sapiens, UniProt O75460); assay: biochemical; conditions: read-out: %Ctrl @ 2000nM
# AURKC = AURKC (Homo sapiens, UniProt Q9UQB9); assay: biochemical; conditions: read-out: %Ctrl @ 2000nM
# EPHB3 = EPHB3 (Homo sapiens, UniProt P54753); assay: biochemical; conditions: read-out: %Ctrl @ 2000nM
# PRKX = PRKX (Homo sapiens, UniProt P51817); assay: biochemical; conditions: read-out: %Ctrl @ 2000nM
# [3] = target: ABL1(Q252H)-nonphosphorylated (Homo sapiens, UniProt P00519, Q252H); assay: biochemical; conditions: read-out: %Ctrl @ 2000nM
# HCK = HCK (Homo sapiens, UniProt P08631); assay: biochemical; conditions: read-out: %Ctrl @ 2000nM
# MAP4K2 = MAP4K2 (Homo sapiens, UniProt Q12851); assay: biochemical; conditions: read-out: %Ctrl @ 2000nM
# RIPK1 = RIPK1 (Homo sapiens, UniProt Q13546); assay: biochemical; conditions: read-out: %Ctrl @ 2000nM
# PYK2 = PYK2 (Homo sapiens, UniProt Q14289); assay: biochemical; conditions: read-out: %Ctrl @ 2000nM
# CAMKK2 = CAMKK2 (Homo sapiens, UniProt Q96RR4); assay: biochemical; conditions: read-out: %Ctrl @ 2000nM
# ERBB3 = ERBB3 (Homo sapiens, UniProt P21860); assay: biochemical; conditions: read-out: %Ctrl @ 2000nM
# Chain of JNK2 (P45984 whole entry): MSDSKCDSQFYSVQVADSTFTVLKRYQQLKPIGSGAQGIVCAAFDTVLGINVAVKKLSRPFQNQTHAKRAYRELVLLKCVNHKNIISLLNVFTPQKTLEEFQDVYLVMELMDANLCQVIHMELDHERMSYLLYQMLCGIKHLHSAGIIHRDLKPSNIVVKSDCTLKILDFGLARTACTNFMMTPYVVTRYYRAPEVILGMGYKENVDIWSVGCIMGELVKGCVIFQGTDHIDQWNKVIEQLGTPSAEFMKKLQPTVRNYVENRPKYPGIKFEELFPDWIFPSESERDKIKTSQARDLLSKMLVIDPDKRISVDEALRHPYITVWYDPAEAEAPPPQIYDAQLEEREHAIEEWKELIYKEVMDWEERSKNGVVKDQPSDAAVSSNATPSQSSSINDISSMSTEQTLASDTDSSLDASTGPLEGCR
smiles,measurement,setting,value
"CC(C)COC(=O)c1[nH]c2ccc(F)cc2c1-c1cn(CC2CCN(CCNS(=O)(=O)c3ccc(CC(C)C)cc3)CC2)nn1 [AB668, isobutyl 5-fluoro-3-(1-((1-(2-((4-isobutylphenyl)sulfonamido)ethyl)piperidin-4-yl)methyl)-1H-1,2,3-triazol-4-yl)-1H-indole-2-carboxylate]",remaining activity at 2 µM,TRKA,96%
same,remaining activity at 2 µM,CLK4,97%
same,remaining activity at 2 µM,MEK3,100%
same,remaining activity at 2 µM,JNK2,92%
same,remaining activity at 2 µM,TXK,92%
same,remaining activity at 2 µM,FRK,70%
same,remaining activity at 2 µM,RET(M918T),94%
same,p38 activation,p38 MAPK (T180/Y182),activated in both cell types
same,remaining activity at 2 µM,[1],100%
same,remaining activity at 2 µM,CLK2,98%
same,remaining activity at 2 µM,MLK3,99%
same,remaining activity at 2 µM,AURKB,99%
same,remaining activity at 2 µM,FGFR1,81%
same,remaining activity at 2 µM,EPHA5,100%
same,remaining activity at 2 µM,RIPK2,83%
same,phosphorylation of S129AKT,AKT (S129),"decreased, in a dose-dependent manner"
same,remaining activity at 2 µM,EPHA7,93%
same,remaining activity at 2 µM,AAK1,80%
same,remaining activity at 2 µM,MYO3B,100%
same,remaining activity at 2 µM,[2],67%
same,remaining activity at 2 µM,PIK3CD,91%
same,remaining activity at 2 µM,MEK4,89%
same,remaining activity at 2 µM,SNRK,100%
same,remaining activity at 2 µM,PIK3CA(M1043I),100%
same,remaining activity at 2 µM,ACVR1B,75%
same,remaining activity at 2 µM,FGFR2,93%
same,remaining activity at 2 µM,PIK4CB,75%
same,remaining activity at 2 µM,MTOR,92%
same,remaining activity at 2 µM,MKNK2,100%
same,Number of Hits S(1),468 kinases,2
same,Number of Hits S(10),468 kinases,3
same,Number of Hits S(35),468 kinases,4
same,remaining activity at 2 µM,MST1,97%
same,remaining activity at 2 µM,STK16,82%
same,remaining activity at 2 µM,ERN1,100%
same,remaining activity at 2 µM,AURKC,100%
same,remaining activity at 2 µM,EPHB3,80%
same,remaining activity at 2 µM,PRKX,69%
same,remaining activity at 2 µM,[3],73%
same,remaining activity at 2 µM,HCK,96%
same,remaining activity at 2 µM,MAP4K2,100%
same,remaining activity at 2 µM,RIPK1,96%
same,remaining activity at 2 µM,PYK2,95%
same,remaining activity at 2 µM,CAMKK2,81%
same,remaining activity at 2 µM,ERBB3,94%
